The values that follow come from US7994187B2, “HIV inhibiting 3,4-dihydro-imidazo[4,5-B]pyridin-5-ones” (Tibotec Pharmaceuticals Ltd., priority 2006, dated 2011).

Series [1] can be described thus: Cytotoxicity in mock-infected MT4 CMV-EGFP cells (GFP fluorescence). The settings on record: human, 50% cytotoxic concentration as negative log. The format is cell-based. From the text:
Analogously, MT4 cells are engineered with GFP and the constitutional cytomegalovirus (CMV) promotor. This cell line is designated MT4 CMV-EGFP, and can be used for the in vitro evaluation of cytotoxicity of investigational compounds. In this cell line, GFP levels are comparably to those of infected MT4 LTR-EGFP cells. Cytotoxic investigational compounds reduce GFP levels of mock-infected MT4 CMV-EGFP cells.
(§1) Effective concentration values such as 50% effective concentration (EC50) can be determined and are usually expressed in μM. An EC50 value is defined as the concentration of test compound that reduces the fluorescence of HIV-infected cells by 50%. The 50% cytotoxic concentration (CC50 in μM) is defined as the concentration of test compound that reduces fluorescence of the mock-infected cells by 50%. The ratio of CC50 to EC50 is defined as the selectivity index (SI) and is an indication of the selectivity of the anti-HIV activity of the inhibitor. The ultimate monitoring of HIV-1 infection and cytotoxicity is done using a scanning microscope. Image analysis allows very sensitive detection of viral infection. Measurements are done before cell necrosis, which usually takes place about five days after infection, in particular measurements are performed three days after infection.

Series [2] concerns wild-type HIV-IIIB strain. The series can be described thus: Anti-viral activity in cellular assay, MT4 LTR-EGFP cells (GFP fluorescence). It is filed as cell-based, HIV-1. The settings on record: Human immunodeficiency virus 1, 72 h, pEC50 = -log10(EC50), measured three days after infection. The procedure:
The compounds of the present invention were tested for anti-viral activity in a cellular assay, which was performed according to the following procedure.
The human T-cell line MT4 is engineered with Green Fluorescent Protein (GFP) and an HIV-specific promoter, HIV-1 long terminal repeat (LTR). This cell line is designated MT4 LTR-EGFP, and can be used for the in vitro evaluation of anti-HIV activity of investigational compounds. In HIV-1 infected cells, the Tat protein is produced which upregulates the LTR promotor and finally leads to stimulation of the GFP reporter production, allowing to measure ongoing HIV-infection fluorometrically.
as §1
The following Table 6 lists pEC50 values against wild-type HIV-IIIB strain as well as pEC50 values for a selected number of compounds of the invention. A pEC50 value corresponds to −log10(EC50). Listed are compounds having a pEC50 value of at least 5.00.

pEC50: −log10 of the molar value.

Usually CC50 stands for the concentration giving 50% cytotoxicity. A lower CC50 goes with harm at low concentration. Usually pEC50 stands for −log10 of the EC50, conventionally taken in molar units. Low values mean a high EC50, high ones a low EC50. For `O=c1c2ccccc2c2nc3ccc(NCCCO)nn3c2n1-c1ccc([N+](=O)[O-])cc1` [Compound 118], the half-maximal cytotoxic concentration (CC50) at 3 days in series [1] is above 32400 nM. This compound also showed a negative-log EC50 (pEC50) in series [2] of 6.19.
In the same order, the values of `O=c1c2cc(Br)ccc2c2nc3ccccn3c2n1-c1ccc([N+](=O)[O-])cc1` [Compound 101, 3-bromo-6-(4-nitrophenyl)-pyrido[2′,1′:2,3]imidazo[4,5-c]isoquinolin-5(6H)-one] are above 100000 nM and 5.66.
For `CN(C)CCN(C)c1ccc2nc3c4ccccc4c(=O)n(-c4ccc([N+](=O)[O-])cc4)c3n2c1` [Compound 68] the same measures were 16600 nM and 5.91.
For `CNc1ccc2nc3c4ccccc4c(=O)n(-c4ccc([N+](=O)[O-])cc4)c3n2n1` [Compound 114] the same measures were above 32400 nM and 6.61.
In series [1], `Nc1ccc2nc3c4ccccc4c(=O)n(-c4ccc([N+](=O)[O-])cc4)c3n2n1` [Compound 129, 9-amino-6-(4-nitrophenyl)-pyridazo-[3′,2′:2,3]imidazo[4,5-c]isoquinolin-5(6H)-one] showed a CC50 at 3 days above 32400 nM. For the same compound, the negative logarithm of the EC50 (pEC50) in series [2] was 6.78.
For `O=c1c2ccccc2c2nc3ccc(NCCO)nn3c2n1-c1ccc(Cl)nc1` [Compound 126] the same measures were above 32400 nM and 5.67.
In the same order, the values of `CN(C)CCCNc1ccc2nc3c4ccccc4c(=O)n(-c4ccc([N+](=O)[O-])cc4)c3n2n1` [Compound 120] are 1320 nM and 6.20.
In the same order, the values of `Cc1ccc(-n2c(=O)c3ccccc3c3nc4ccccn4c32)cn1` [Compound 19] are above 32400 nM and 5.05.
Consider `O=c1c2ccccc2c2nc3ccccn3c2n1-c1ccc([N+](=O)[O-])cc1` [Compound 1, 6-(4-nitrophenyl)-pyrido[2′,1′:2,3]imidazo-[4,5-c]isoquinolin-5(6H)-one], for which the CC50 at 3 days in series [1] was above 32400 nM. In series [2], this compound gave a pEC50 of 6.45.
For `O=c1c2ccccc2c2nc3ccc(OCCO)cn3c2n1-c1ccc([N+](=O)[O-])cc1` [Compound 74, 9-[2-hydroxy-ethoxy]-6-(4-nitrophenyl)-pyrido[2′,1′:2,3]imidazo[4,5-c]isoquinolin-5(6H)-one] the same measures were above 32400 nM and 6.06.
In the same order, the values of `O=CNc1ccc2nc3c4ccccc4c(=O)n(-c4ccc([N+](=O)[O-])cc4)c3n2c1` [Compound 70] are above 32400 nM and 6.22.
For `CN(C)CCNc1ccc2nc3c4ccccc4c(=O)n(-c4ccc([N+](=O)[O-])cc4)c3n2n1` [Compound 122] the same measures were 69.2 nM and 7.05.
Regarding `O=c1c2ccccc2c2nc3ccc(NCCN4CCCC4)nn3c2n1-c1ccc([N+](=O)[O-])cc1` [Compound 115], the CC50 at 3 days in series [1] is 832 nM. The compound also gave a negative logarithm of the EC50 (pEC50) in series [2] of 6.04.
In the same order, the values of `O=c1c2ccccc2c2nc3ccc(NCCNCCO)nn3c2n1-c1ccc([N+](=O)[O-])cc1` [Compound 130] are 3550 nM and 6.66.
For `CN(C)CCCOc1ccc2nc3c4ccccc4c(=O)n(-c4ccc([N+](=O)[O-])cc4)c3n2c1` [Compound 82] the same measures were 8910 nM and 5.95.
For `O=c1c2ccccc2c2nc3ccccn3c2n1-c1ccc(Cl)nc1` [Compound 18] the same measures were above 32400 nM and 5.09.
In series [1], `Nc1ccc2nc3c4ccccc4c(=O)n(-c4ccc(Cl)nc4)c3n2c1` [Compound 53, 9-amino-6-(6-chloro-pyridin-3-yl)-pyrido[2′,1′:2,3]imidazo-[4,5-c]isoquinolin-5(6H)-one] showed a half-maximal cytotoxic concentration (CC50) at 3 days of 4570 nM. This compound had a negative-log EC50 (pEC50) in series [2] of 5.78.
As for `O=c1c2ccccc2c2nc3ccc(NCCO)nn3c2n1-c1ccc([N+](=O)[O-])cc1` [Compound 121, 9-[(2-hydroxyethyl)amino]-6-(4-nitrophenyl)-pyridazo[3′,2′:2,3]imidazo[4,5-c]isoquinolin-5(6H)-one], it took 14800 nM to reach half-maximal cytotoxicity in series [1] (CC50 at 3 days). In addition, in series [2], the negative-log EC50 (pEC50) is 6.56.
For `CN(C)/C=N/c1ccc2nc3c4ccccc4c(=O)n(-c4ccc(Cl)nc4)c3n2c1` [Compound 84, 6-(6-chloro-pyridin-3-yl)-9-[[(dimethylamino)-methylene]amino]-pyrido[2′,1′:2,3]imidazo[4,5-c]isoquinolin-5(6H)-one] the same measures were 16600 nM and 5.21.
For `O=c1c2ccccc2c2nc3ccc(NCCN4CCCC4)cn3c2n1-c1ccc([N+](=O)[O-])cc1` [Compound 67, 6-(4-nitrophenyl)-9-(2-pyrrolidin-1-yl-ethylamino)-pyrido[2′,1′:2,3]imidazo[4,5-c]isoquinolin-5(6H)-one] the same measures were 2630 nM and 6.47.
Consider `O=c1c2ccccc2c2nc3ccccn3c2n1-c1ccc(Br)nc1` [Compound 21, 6-(6-bromo-pyridin-3-yl)-pyrido-[2′,1′:2,3]imidazo[4,5-c]isoquinolin-5(6H)-one], for which the half-maximal cytotoxic concentration (CC50) at 3 days in series [1] was above 32400 nM. The same compound showed a pEC50 in series [2] of 5.35.
In the same order, the values of `O=C(Nc1ccc2nc3c4ccccc4c(=O)n(-c4ccc(Cl)nc4)c3n2c1)C(F)(F)F` [Compound 61, N-[6-(6-chloro-pyridin-3-yl)-5,6-dihydro-5-oxo-pyrido[2′,1′:2,3]imidazo[4,5-c]isoquinolin-9-yl]-2,2,2-trifluoro-acetamide] are above 32400 nM and 5.68.
In the same order, the values of `O=c1c2ccccc2c2nc3ccc(OP(=O)(O)O)cn3c2n1-c1ccc([N+](=O)[O-])cc1` [Compound 76, phosphoric acid 5,6-dihydro-6-(4-nitrophenyl)-5-oxo-pyrido[2′,1′:2,3]imidazo[4,5-c]isoquinolin-9-yl ester] are above 32400 nM and 7.13.
For `O=c1c2sccc2c2nc3ccccn3c2n1-c1ccc([N+](=O)[O-])cc1` [Compound 103, 5-(4-nitrophenyl)-pyrido[2′,1′:2,3]imidazo[4,5-b]thieno[3,2-d]pyridin-4(5H)-one] the same measures were above 32400 nM and 6.00.
In series [1], `O=c1c2ccccc2c2nc3ccc(NCc4ccccc4)nn3c2n1-c1ccc([N+](=O)[O-])cc1` [Compound 125] gave a CC50 at 3 days above 20000 nM. The negative-log EC50 (pEC50) in series [2] was 5.28.
In the same order, the values of `O=C(Nc1ccc2nc3c4ccccc4c(=O)n(-c4ccc([N+](=O)[O-])cc4)c3n2c1)C(F)(F)F` [Compound 90] are above 32400 nM and 6.40.
For `O=c1c2ccccc2c2nc3cc(CO)ccn3c2n1-c1ccc([N+](=O)[O-])cc1` [Compound 9] the same measures were above 32400 nM and 6.14.
In the same order, the values of `O=c1c2ccccc2c2nc3sccn3c2n1-c1ccc([N+](=O)[O-])cc1` [Compound 98, 6-(4-nitrophenyl)-thiazolo[2′,3′:2,3]imidazo[4,5-c]isoquinolin-5(6H)-one] are above 32400 nM and 6.01.
With `CN(C)CCOc1ccc2nc3c4ccccc4c(=O)n(-c4ccc([N+](=O)[O-])cc4)c3n2c1` [Compound 81], the midpoint of cytotoxicity in series [1], the CC50 at 3 days, lay at 13500 nM. For the same compound, in series [2], the pEC50 was 5.50.
